pIC50: −log10 of the molar value.

Sequence of influenza B virus minigenome (Hubei B) (P04665 whole entry): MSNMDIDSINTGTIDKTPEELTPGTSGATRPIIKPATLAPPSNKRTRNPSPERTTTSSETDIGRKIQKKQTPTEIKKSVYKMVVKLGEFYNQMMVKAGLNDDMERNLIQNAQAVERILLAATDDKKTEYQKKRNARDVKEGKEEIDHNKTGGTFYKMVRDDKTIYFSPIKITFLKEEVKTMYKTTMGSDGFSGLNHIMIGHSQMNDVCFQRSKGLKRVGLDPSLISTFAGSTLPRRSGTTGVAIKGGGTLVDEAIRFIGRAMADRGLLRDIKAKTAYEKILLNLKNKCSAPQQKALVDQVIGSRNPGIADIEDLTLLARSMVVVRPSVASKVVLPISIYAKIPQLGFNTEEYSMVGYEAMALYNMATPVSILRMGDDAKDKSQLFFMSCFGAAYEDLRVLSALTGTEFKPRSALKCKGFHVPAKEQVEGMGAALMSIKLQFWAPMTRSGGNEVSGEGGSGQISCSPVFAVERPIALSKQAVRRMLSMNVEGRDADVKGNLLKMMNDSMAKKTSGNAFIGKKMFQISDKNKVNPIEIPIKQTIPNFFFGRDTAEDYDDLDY

The target in the first test is influenza A virus minigenome (PB2, PB1, PA, NP proteins) (UniProt P04665). It counts as cell-based. The note with it: read-out: RNP_ Hubei B IC50.
Sequence of influenza A virus minigenome (PB2, PB1, PA, NP proteins) (P04665 whole entry): as above
By pIC50 is commonly meant the negative decadic logarithm of the IC50, by convention in mol/L. Take `COCCOC[C@@]1(C)COC[C@@H](COc2ccc(-c3cc(C(N)=O)c(=O)[nH]c3C(F)(F)F)cc2)O1` [Example 430, 5-(4-(((2S,6S)-6-((2-methoxyethoxy)methyl)-6-methyl-1,4-dioxan-2-yl)methoxy)phenyl)-2-oxo-6-(trifluoromethyl)-1,2-dihydropyridine-3-carboxamide]: the pIC50 was 5.00 to 5.30.

Turning to `C[C@]1(COCC(F)F)COC[C@@H](COc2ccc(-c3cc(C(N)=O)c(=O)[nH]c3C(F)(F)F)cc2)O1` [Example 431, 5-(4-(((2S,6R)-6-((2,2-difluoroethoxy)methyl)-6-methyl-1,4-dioxan-2-yl)methoxy)phenyl)-2-oxo-6-(trifluoromethyl)-1,2-dihydropyridine-3-carboxamide], the pIC50 was 5.00 to 5.30.

On to `C[C@]1(COCC(F)(F)F)COC[C@@H](COc2ccc(-c3cc(C(N)=O)c(=O)[nH]c3C(F)(F)F)cc2)O1` [Example 432, 5-(4-(((2S,6R)-6-methyl-6-((2,2,2-trifluoroethoxy)methyl)-1,4-dioxan-2-yl)methoxy)phenyl)-2-oxo-6-(trifluoromethyl)-1,2-dihydropyridine-3-carboxamide], for which the pIC50 is 5.00 to 5.30.

As for `C[C@]1(CO)COC[C@@H](COc2ccc(-c3cc(C(N)=O)c(=O)[nH]c3C(F)(F)F)cc2)O1` [Example 433, 5-(4-(((2S,6S)-6-(hydroxymethyl)-6-methyl-1,4-dioxan-2-yl)methoxy)phenyl)-2-oxo-6-(trifluoromethyl)-1,2-dihydropyridine-3-carboxamide], the pIC50 was 5.00 to 5.30.

Consider `C[C@]1(CC(F)F)COC[C@@H](COc2ccc(-c3cc(C(N)=O)c(=O)[nH]c3C(F)(F)F)cc2)O1` [Example 434, 5-(4-(((2S,6S)-6-(2,2-difluoroethyl)-6-methyl-1,4-dioxan-2-yl)methoxy)phenyl)-2-oxo-6-(trifluoromethyl)-1,2-dihydropyridine-3-carboxamide], for which the pIC50 is 5.00 to 5.30.

With `C[C@]1(CCF)COC[C@@H](COc2ccc(-c3cc(C(N)=O)c(=O)[nH]c3C(F)(F)F)cc2)O1` [Example 435, 5-(4-(((2S,6S)-6-(2-fluoroethyl)-6-methyl-1,4-dioxan-2-yl)methoxy)phenyl)-2-oxo-6-(trifluoromethyl)-1,2-dihydropyridine-3-carboxamide], the pIC50 was 5.00 to 5.30.

A further test concerns the target influenza B virus minigenome (Hubei B) (UniProt P04665). It counts as cell-based. The note with it: read-out: RNP_Hubei B IC50.
In the case of `C[C@]1(COCCF)COC[C@@H](COc2ccc(-c3cc(C(N)=O)c(=O)[nH]c3C(F)(F)F)cc2)O1` [Example 436, 5-(4-(((2S,6R)-6-((2-fluoroethoxy)methyl)-6-methyl-1,4-dioxan-2-yl)methoxy)phenyl)-2-oxo-6-(trifluoromethyl)-1,2-dihydropyridine-3-carboxamide], the pIC50 is 5.00 to 5.30.

On to `C[C@@]1(C2CC2)COC[C@@H](COc2ccc(-c3cc(C(N)=O)c(=O)[nH]c3C(F)(F)F)cc2)O1` [Example 437, 5-(4-(((2S,6R)-6-cyclopropyl-6-methyl-1,4-dioxan-2-yl)methoxy)phenyl)-2-oxo-6-(trifluoromethyl)-1,2-dihydropyridine-3-carboxamide], for which the pIC50 was 5.00 to 5.30.

Regarding `COC[C@]1(C2CC2)COC[C@@H](COc2ccc(-c3cc(C(N)=O)c(=O)[nH]c3C(F)(F)F)cc2)O1` [Example 438, 5-(4-(((2S,6R)-6-cyclopropyl-6-(methoxymethyl)-1,4-dioxan-2-yl)methoxy)phenyl)-2-oxo-6-(trifluoromethyl)-1,2-dihydropyridine-3-carboxamide], the pIC50 is 5.00 to 5.30.

For the compound `COC[C@@]1(C2CC2)COC[C@@H](COc2ccc(-c3cc(C(N)=O)c(=O)[nH]c3C(F)(F)F)cc2)O1` [Example 439, 5-(4-(((2S,6S)-6-cyclopropyl-6-(methoxymethyl)-1,4-dioxan-2-yl)methoxy)phenyl)-2-oxo-6-(trifluoromethyl)-1,2-dihydropyridine-3-carboxamide], the pIC50 was 5.00 to 5.30.

With `NC(=O)c1cc(-c2ccc(OC[C@@H]3COC[C@]4(CCOC4)O3)cc2)c(C(F)(F)F)[nH]c1=O` [Example 440, 5-(4-(((5R,7S)-2,6,9-trioxaspiro[4.5]decan-7-yl)methoxy)phenyl)-2-oxo-6-(trifluoromethyl)-1,2-dihydropyridine-3-carboxamide], the pIC50 is 5.00 to 5.30.
